Reference: patent US20230159445A1, “STAT INHIBITORY COMPOUNDS AND COMPOSITIONS” (JANPIX LIMITED, priority 2020, published 2023)

tested on: MV4-11 cells; test: MV4-11 Cell Cytotoxicity Assay (CellTiter-Blue, 72 h); format: cell-based, human; conditions: Homo sapiens, MV4-11; MV-4-11 cells
Protocol: In some embodiments, the potency of the STAT5 inhibitors are evaluated by an in vitro assay such as MV4-11 Cell Cytotoxicity Assay. […] 10,000 cells were plated per well in 96-well flat-bottom sterile culture plates with low-evaporation lids. After 24 h, inhibitors and a vehicle control (0.5% DMSO) were added and the cells were incubated for 72 h at 37° C. in 5% CO2. Inhibitors were examined in triplicate at a maximal concentration of 50 μM, followed by 1:2 dilutions in subsequent wells (25, 12.5, 6.25, 3.125, 1.5625, 0.78125, 0.390625, 0.195313 and 0.097656 μM). After 72 h, the wells were treated with CellTiter-Blue® (20 μL/well), and the plates were incubated using standard cell culture conditions for 1 hour. Fluorescence was measured at 560/590 nm.

Compared with `CC(C)(C)c1cc(CN(C(=O)CN(Cc2ccccc2F)S(=O)(=O)c2c(F)c(F)c(F)c(F)c2F)c2ccc(C(=O)O)cc2NS(C)(=O)=O)cc(C2CC2)c1` [Compound 1059, 4-(N-(3-(tert-butyl)-5-cyclopropylbenzyl)-2-(N-(2-fluorobenzyl)-(2,3,4,5,6-pentafluoro-phenyl)sulfonamido)acetamido)-3-(methylsulfonamido) benzoic acid], `CN(C)c1ccc(C(=O)O)cc1N(Cc1cc(C2CC2)cc(C(C)(C)C)c1)C(=O)CN(Cc1ccccc1F)S(=O)(=O)c1c(F)c(F)c(F)c(F)c1F` [Compound 1120, 3-(N-(3-(tert-butyl)-5-cyclopropylbenzyl)-2-(N-(2-fluorobenzyl)-(2,3,4,5,6-pentafluoro-phenyl)sulfonamido)acetamido)-4-(dimethylamino) benzoic acid] is lower in IC50: 3.16 to 100 µM for the first, 0.316 to 1 µM for the second. The second is the more potent here.

`COc1cc(C(=O)O)ccc1N(Cc1cc(C2CC2)cc(C(C)(C)C)c1)C(=O)CN(Cc1ccc(Cl)cc1F)S(=O)(=O)c1c(F)c(F)c(F)c(F)c1F` [Compound 1175, 4-(N-(3-(tert-butyl)-5-cyclopropylbenzyl)-2-(N-(4-chloro-2-fluorobenzyl)-(2,3,4,5,6-pentafluorophenyl)sulfon-amido)acetamido)-3-methoxybenzoic acid] and `COc1cc(C(N)=O)ccc1N(Cc1cc(C2CC2)cc(C(C)(C)C)c1)C(=O)CN(Cc1ccccc1F)S(=O)(=O)c1c(F)c(F)c(F)c(F)c1F` [Compound 1114, 4-(N-(3-(tert-butyl)-5-cyclopropylbenzyl)-2-(N-(2-fluorobenzyl)-(2,3,4,5,6-pentafluoro-phenyl)sulfonamido)acetamido)-3-methoxybenzamide] fall in the same range of IC50: 0.316 to 1 µM for the first, 0.316 to 1 µM for the second.

`O=C(O)c1ccc(N(Cc2cc(O)cc(OCC3CC3)c2)C(=O)CN(Cc2ccc(Cl)cc2)S(=O)(=O)c2c(F)c(F)c(F)c(F)c2F)cc1O` [Compound 1020, 4-(2-(N-(4-chlorobenzyl)-(2,3,4,5,6-pentafluorophenyl)sulfon-amido)-N-(3-(cyclopropylmethoxy)-5-hydroxybenzyl)acetamido)-2-hydroxybenzoic acid] and `O=C(O)c1ccc(N(Cc2cc(OCC3CC3)cc(OCC3CC3)c2)C(=O)CN(Cc2ccc(Cl)cc2)S(=O)(=O)c2c(F)c(F)c(F)c(F)c2F)cc1O` [Compound 1011, 4-(N-(3,5-bis(cyclopropylmethoxy)benzyl)-2-(N-(4-chlorobenzyl)-(2,3,4,5,6-pentafluorophenyl)sulfon-amido)acetamido)-2-hydroxybenzoic acid] fall in the same range of IC50: 3.16 to 100 µM for the first, 3.16 to 100 µM for the second.

`COc1c(CN(C(=O)CN(Cc2ccc(Cl)cc2)S(=O)(=O)c2c(F)c(F)c(F)c(F)c2F)c2ccc(C(=O)O)c(O)c2)cc(C(C)(C)C)cc1C1CC1` [Compound 1009, 4-(N-(5-(tert-butyl)-3-cyclopropyl-2-methoxybenzyl)-2-(N-(4-chlorobenzyl)-(2,3,4,5,6-pentafluorophenyl)sulfon-amido)acetamido)-2-hydroxybenzoic acid] and `CC(C)(C)c1cc(CN(C(=O)CN(Cc2ccc(Cl)cc2)S(=O)(=O)c2c(F)c(F)c(F)c(F)c2F)c2ccc(O)c(C(=O)O)c2)cc(C2CC2)c1` [Compound 1018, 5-(N-(3-(tert-butyl)-5-cyclopropylbenzyl)-2-(N-(4-chlorobenzyl)-(2,3,4,5,6-pentafluorophenyl)sulfon-amido)acetamido)-2-hydroxybenzoic acid] fall in the same range of IC50: 3.16 to 100 µM for the first, 3.16 to 100 µM for the second.

`CC(C)(C)c1cc(CN(C(=O)CN(Cc2ccc(Cl)cc2)S(=O)(=O)c2c(F)c(F)c(F)c(F)c2F)c2ccc(O)c(O)c2)cc(C2CC2)c1` [Compound 1029, N-(3-(tert-butyl)-5-cyclopropylbenzyl)-2-(N-(4-chlorobenzyl)-(2,3,4,5,6-pentafluorophenyl)sulfonamido)-N-(3,4-dihydroxyphenyl) acetamide] and `CC(C)(C)c1cc(CN(C(=O)CN(Cc2ccc(Cl)cc2)S(=O)(=O)c2c(F)c(F)c(F)c(F)c2F)c2ccc(C(=O)NO)cc2)cc(C2CC2)c1` [Compound 1032, 4-(N-(3-(tert-butyl)-5-cyclopropylbenzyl)-2-(N-(4-chlorobenzyl)-(2,3,4,5,6-pentafluorophenyl)sulfon-amido)acetamido)-N-hydroxybenzamide] fall in the same range of IC50: 3.16 to 100 µM for the first, 3.16 to 100 µM for the second.

`CC(C)(C)c1cc(CN(C(=O)CN(Cc2ccc(Cl)cc2)S(=O)(=O)c2c(F)c(F)c(F)c(F)c2F)c2ccc(C(C)(C)C(=O)O)cc2)cc(C2CC2)c1` [Compound 1019, 2-(4-(N-(3-(tert-butyl)-5-cyclopropylbenzyl)-2-(N-(4-chlorobenzyl)-(2,3,4,5,6-pentafluorophenyl)sulfon-amido)acetamido)phenyl)-2-methylpropanoic acid] and `CC(C)(C)c1cc(CN(C(=O)CN(Cc2ccccc2O)S(=O)(=O)c2c(F)c(F)c(F)c(F)c2F)c2ccc(C(=O)O)c(O)c2)cc(C2CC2)c1` [Compound 1036, 4-(N-(3-(tert-butyl)-5-cyclopropylbenzyl)-2-(N-(2-hydroxybenzyl)-(2,3,4,5,6-pentafluoro-phenyl)sulfonamido)acetamido)-2-hydroxybenzoic acid] fall in the same range of IC50: 1 to 3.16 µM for the first, 1 to 3.16 µM for the second.

`COc1cc(C(=O)O)ccc1N(Cc1nc2ccccc2n1C)C(=O)CN(Cc1cnccc1C(F)(F)F)S(=O)(=O)c1c(F)c(F)c(F)c(F)c1F` [Compound 1158, 3-methoxy-4-(N-((1-methyl-1H-benzo[d]imidazol-2-yl)methyl)-2-(N-((4-(trifluoromethyl)pyridin-3-yl)methyl)-(2,3,4,5,6-pentafluoro-phenyl)sulfonamido)acetamido)benzoic acid] and `O=C(O)c1ccc(N(Cc2cccnn2)C(=O)CN(Cc2ccccc2C(F)(F)F)S(=O)(=O)c2c(F)c(F)c(F)c(F)c2F)c(OC2CC2)c1` [Compound 1138, 3-cyclopropoxy-4-(2-(N-(2-(trifluoromethyl)benzyl)-(2,3,4,5,6-pentafluoro-phenyl)sulfonamido)-N-(pyridazin-3-ylmethyl)acetamido) benzoic acid] fall in the same range of IC50: 3.16 to 100 µM for the first, 3.16 to 100 µM for the second.

Compared with `COc1cc(C(=O)O)ccc1N(Cc1cc(C2CC2)cc(C(C)(C)C)c1)C(=O)CN(Cc1cncc(C(F)(F)F)c1)S(=O)(=O)c1c(F)c(F)c(F)c(F)c1F` [Compound 1131, 4-(N-(3-(tert-butyl)-5-cyclopropylbenzyl)-2-(N-((5-(trifluoromethyl)pyridin-3-yl)methyl)-(2,3,4,5,6-pentafluoro-phenyl)sulfonamido)acetamido)-3-methoxybenzoic acid], `CN(C)c1cc(C(=O)O)ccc1N(Cc1cc(C2CC2)cc(C(C)(C)C)c1)C(=O)CN(Cc1c(F)c(F)c(F)c(F)c1F)S(=O)(=O)c1c(F)c(F)c(F)c(F)c1F` [Compound 1106, 4-(N-(3-(tert-butyl)-5-cyclopropylbenzyl)-2-(N-((perfluorophenyl)methyl)-(2,3,4,5,6-pentafluorophenyl)sulfonamido)acetamido)-3-(dimethylamino)benzoic acid] is lower in IC50: 0.316 to 1 µM for the first, 1e-05 to 0.316 µM for the second.

In the case of `COc1cc(C(=O)O)ccc1N(Cc1cccc(C(C)(C)C)c1)C(=O)CN(C12CC(C1)C2)S(=O)(=O)c1c(F)c(F)c(F)c(F)c1F` [Compound 1144, 4-(2-(N-(bicyclo[1.1.1]pentan-1-yl)-(2,3,4,5,6-pentafluorophenyl)sulfon-amido)-N-(3-(tert-butyl)benzyl)acetamido)-3-methoxybenzoic acid], the IC50 is reported as 0.316 to 1 µM.

same assay, conditions: Homo sapiens; MV4-11 cells, 72 h, CellTiter-Blue; read-out: IC50- MV-4-11

`CC(C)COc1cc(CN(C(=O)CN(Cc2ccc(Cl)cc2)S(=O)(=O)c2c(F)c(F)c(F)c(F)c2F)c2ccc(C(=O)O)c(O)c2)cc(OCC(C)C)c1` [Compound 2007, 4-(2-(N-(4-chlorobenzyl)-(2,3,4,5,6-pentafluorophenyl)sulfon-amido)-N-(3,5-diisobutoxybenzyl)acetami-do)-2-hydroxybenzoic acid] and `O=C(O)c1ccc(N(Cc2cc(O)cc(O)c2)C(=O)CN(Cc2ccc(Cl)cc2)S(=O)(=O)c2c(F)c(F)c(F)c(F)c2F)cc1O` [Compound 2010, 4-(2-(N-(4-chlorobenzyl)-(2,3,4,5,6-pentafluorophenyl)sulfon-amido)-N-(3,5-dihydroxybenzyl)acetamido)-2-hydroxybenzoic acid] fall in the same range of IC50: 3.16 to 100 µM for the first, 3.16 to 100 µM for the second.

Compared with `CC(C)(C)c1cc(N(C(=O)CN(Cc2ccc(Cl)cc2)S(=O)(=O)c2c(F)c(F)c(F)c(F)c2F)c2ccc(C(=O)O)cc2)cc(C(C)(C)C)c1` [Compound 2002, 4-(2-(N-(4-chlorobenzyl)-(2,3,4,5,6-pentafluorophenyl)sulfon-amido)-N-(3,5-di-tert-butylphenyl)acetamido)ben-zoic acid], `O=C(O)c1ccc(N(Cc2ccc3c(c2)OCCO3)C(=O)CN(Cc2ccc(Cl)cc2)S(=O)(=O)c2c(F)c(F)c(F)c(F)c2F)cc1O` [Compound 2006, 4-(2-(N-(4-chlorobenzyl)-(2,3,4,5,6-pentafluorophenyl)sulfon-amido)-N-((2,3-dihydrobenzo[b][1,4]dioxin-6-yl)methyl)acetamido)-2-hydroxybenzoic acid] is higher in IC50: 0.316 to 1 µM for the first, 3.16 to 100 µM for the second.

`CC(C)(C)c1cc(CN(C(=O)CN(C23CC(C2)C3)S(=O)(=O)c2c(F)c(F)c(F)c(F)c2F)c2ccc(C(=O)O)c(O)c2)cc(C2CC2)c1` [Compound 2008, 4-(2-(N-(bicyclo[1.1.1]pentan-1-yl)-(2,3,4,5,6-pentafluorophenyl)sulfon-amido)-N-(3-(tert-butyl)-5-cyclopropylbenzyl)acetami-do)-2-hydroxybenzoic acid] was tested, and the IC50 was 3.16 to 100 µM.

same assay, conditions: MV4-11 cells, 72 h, CellTiter-Blue; read-out: IC50- MV-4-11

`O=C(O)c1ccc(N(Cc2cc(Cl)cc(Br)c2)C(=O)CN(Cc2ccc(Cl)cc2)S(=O)(=O)c2c(F)c(F)c(F)c(F)c2F)cc1O` [Compound 2013, 4-(N-(3-bromo-5-chlorobenzyl)-2-(N-(4-chlorobenzyl)-(2,3,4,5,6-pentafluorophenyl)sulfon-amido)acetamido)-2-hydroxybenzoic acid] was tested, and the IC50 was 3.16 to 100 µM.
